Converted amounts (≈) assume the structure as drawn.
Key:
Mtb Ag85C = Mtb Ag85C (Mycobacterium tuberculosis, UniProt P9WQN9); experiment: Fluorometric resorufin butyrate/trehalose assay of Mtb Ag85C activity; assay type: biochemical; conditions: for remaining activity at 5 µM: 5 μM compound, 40 min of incubation, normalized to control without inhibitor, read-out: Percent of Mtb Ag85C activity remaining
[1] = tested on: MRHF cells treated with TcdB and TcdA; experiment: Cytotoxicity assay: inhibition of toxin-induced cell rounding; assay type: cell-based, human; conditions: 0.05 mL of 40 μM compound mixed with 0.05 mL TcdB and TcdA solution, 30 min; MRHF cells 2 h
Protocol: Cytotoxicity data was collected using a qualitative assay designed by Quidel to detect TcdB and TcdA presence in patients' stool samples. A solution containing TcdB and TcdA (0.05 mL) was mixed with 0.05 mL of a 40 μM solution of compounds of example 1-15 individually. These solutions were then incubated together for thirty minutes at room temperature. Then the 0.1 ml solutions were used to treat MRHF cells in a twenty four well plate. The cells were then incubated at thirty degrees Celsius under CO2 for two hours. Then, the cells were imaged using a 20× objective on an inverted microscope. […] Thus, compound 506o provides cytoprotection against Clostridium difficile toxins TcdB and TcdA.

Mtb H37Rv = experiment: microbe, parasite or virus in culture; assay type: cell-based; conditions: Mycobacterium tuberculosis, MABA
Ag85C = Ag85C (Mycobacterium tuberculosis, UniProt P9WQN9); experiment: Activity of Ag85C modified by compounds over time (FIGS. 6A-6B); assay type: biochemical
Description: FIGS. 6A-6B: Activity of Ag85C modified by compounds 506e (FIG. 6A) and 506f (FIG. 6B) over time.
FIGS. 6A-6B show the activity of Ag85C modified by compounds 506e and 506f over time.

[2] = tested on: Mycobacterium tuberculosis H37Rv; experiment: Minimum inhibitory concentration for Mycobacterium tuberculosis H37Rv strain (Table A); assay type: cell-based; conditions: for MIC / MIC50: Mycobacterium tuberculosis, Strain Mtb H37Rv

Sequence of Mtb Ag85C (P9WQN9 46-340 limits assumed): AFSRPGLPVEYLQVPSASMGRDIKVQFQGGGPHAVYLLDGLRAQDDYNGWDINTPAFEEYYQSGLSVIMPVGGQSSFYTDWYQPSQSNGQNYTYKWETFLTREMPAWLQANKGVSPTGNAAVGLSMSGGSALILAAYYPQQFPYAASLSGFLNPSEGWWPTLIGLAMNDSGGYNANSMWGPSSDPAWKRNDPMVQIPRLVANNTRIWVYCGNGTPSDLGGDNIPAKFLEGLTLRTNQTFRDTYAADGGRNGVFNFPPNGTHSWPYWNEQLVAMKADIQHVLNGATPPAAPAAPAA
Sequence of Ag85C (P9WQN9 46-340): as the sequence (P9WQN9 46-340 limits assumed) above

| Compound | remaining activity at 5 µM (Mtb Ag85C) [%] | melting point [°C] | MIC (Mtb H37Rv) [µg/mL] | MIC [2] [µg/mL] | MIC50 [2] [µg/mL] | further results |
| --- | --- | --- | --- | --- | --- | --- |
| O=c1c2ccccc2[se]n1C1CCCCC1 [Compound 506m, 2-Cyclohexylbenzo[d][1,2]selenazol-3(2H)-one] | 44 |  |  |  |  |  |
| O=c1c2ccccc2[se]n1-c1ccccn1 [Compound 506o, 2-(Pyridin-2-yl)benzo[d][1,2]selenazol-3(2H)-one] |  |  |  |  |  | Inhibition of cell rounding (cell appearance) [1]: more intermediate phenotype |
| O=c1c2ccccc2[se]n1C12CC3CC(CC(C3)C1)C2 |  | 215 to 217 |  |  |  |  |
| [N-]=[N+]=Nc1ccc(NC(=O)c2ccccc2[Se]C#Cc2ccccc2)cc1 [Compound 208, N-(4-Azidophenyl)-2-((phenylethynyl)selanyl)-benzamide] |  |  | ≥ 50 |  |  |  |
| C=CCn1[se]c2ccccc2c1=O [Compound 506e, 2-allylbenzo[d][1,2]selenazol-3(2H)-one] | 15 |  | 12.5 (≈ 52.5 µM) | 12.5 (≈ 52.5 µM) | 10.4 (≈ 43.5 µM) | Activity of Ag85C modified by compound over time (Ag85C): decrease in the activity of Ag85C; IC50 (Mtb Ag85C; 15 min of incubation, read-out: Apparent IC50 (appIC50) against Mtb Ag85C): 8.8 µM; MIC values against Mycobacterium tuberculosis compared with ebselen [2]: lower than ebselen |
| O=C(CCCCC1SC[C@@H]2NC(=O)N[C@H]12)NCCOCCOCCOCCNC(=O)CCC(=O)N1Cc2ccccc2-c2nnn(-c3ccc(-n4[se]c5ccccc5c4=O)cc3)c2-c2ccccc21 (stereo partly drawn) [Compound 210, N-(13,16-dioxo-16-(3-(4-(3-oxobenzo[d][1,2]selenazol-2(3H)-yl)phenyl)-3,9-dihydro-8H-dibenzo[b,f][1,2,3]triazolo[4,5-d]azocin-8-yl)-3,6,9-trioxa-12-azahexadecyl)-5-((3aS,6aR)-2-oxohexahydro-1H-thieno[3,4-d]imidazol-4-yl)pentanamide] | 61 |  | ≥ 50 |  |  |  |
| COc1ccc(Cn2[se]c3ccccc3c2=O)cc1 [Compound 506a, 2-(4-methoxybenzyl)benzo[d][1,2]selenazol-3(2H)-one] |  |  |  | 25 (≈ 78.6 µM) | 18.3 (≈ 57.6 µM) |  |
| COc1ccccc1Cn1[se]c2ccccc2c1=O [Compound 506c, 2-(2-methoxybenzyl)benzo[d][1,2]selenazol-3(2H)-one] | 36 | 169 to 170 | 12.5 (≈ 39.3 µM) | 12.5 (≈ 39.3 µM) | 10.4 (≈ 32.6 µM) | MIC values against Mycobacterium tuberculosis compared with ebselen [2]: lower than ebselen |
| O=c1c2ccccc2[se]n1-c1ccccc1 [Ebselen, 2-phenyl-1,2-benzisoselenazol-3(2H)-one, reference compound] | 17 |  | 12.5 (≈ 45.6 µM) | 12.5 (≈ 45.6 µM) | 9.59 (≈ 35 µM) | Inhibition of cell rounding (cell appearance) [1]: maintained their string-like appearance |
| O=c1c2ccccc2[se]n1CC1CCCCC1 [Compound 506f, 2-(cyclohexylmethyl)benzo[d][1,2]selenazol-3(2H)-one] | 30 |  | ≥ 50 | 50 (≈ 170 µM) | 36.2 (≈ 123 µM) | Activity of Ag85C modified by compound over time (Ag85C): decrease in the activity of Ag85C |
| COc1ccc(-n2[se]c3ccccc3c2=O)cc1 [Compound 506b, 2-(4-methoxyphenyl)benzo[d][1,2]selenazol-3(2H)-one] |  |  |  | 25 (≈ 82.2 µM) | 19.3 (≈ 63.4 µM) |  |
| O=c1c2ccccc2[se]n1C1CCCC1 [Compound 506l, 2-Cyclopentylbenzo[d][1,2]selenazol-3(2H)-one] | 40 | 119 to 120 |  |  |  |  |
| CC(C)(C)n1[se]c2ccccc2c1=O |  | 137 to 139 |  |  |  |  |
| O=c1c2ccccc2[se]n1Cc1ccccc1 [Compound 506d, 2-benzylbenzo[d][1,2]selenazol-3(2H)-one] |  |  |  | 25 (≈ 86.7 µM) | 15 (≈ 52.2 µM) |  |
| CC(C)Cn1[se]c2ccccc2c1=O |  | 114 to 116 |  |  |  |  |
| [N-]=[N+]=Nc1ccc(-n2[se]c3ccccc3c2=O)cc1 |  | 169 to 170 |  |  |  |  |

From patent US11053236B2, “Substituted isoselenazolone anti-infective, anti-inflammatory, anti-cancer, cytoprotective, neuroprotective, and anti-oxidant agents” (priority 2016, dated 2021)
